According to PMC8080595, “Discovery of a novel RORγ antagonist with skin-restricted exposure for topical treatment of mild to moderate psoriasis” (Scientific Reports, 2021):

Key:
RORγ = target: T1, RORγ (Homo sapiens, UniProt P51449); test: RORγ luciferase reporter assay; format: cell-based; settings: nuclear reporter assay, n = 3; read-out: inhibition of the RORγ transcriptional activity, average IC50
T1 sequence (P51449 260-518 limits assumed): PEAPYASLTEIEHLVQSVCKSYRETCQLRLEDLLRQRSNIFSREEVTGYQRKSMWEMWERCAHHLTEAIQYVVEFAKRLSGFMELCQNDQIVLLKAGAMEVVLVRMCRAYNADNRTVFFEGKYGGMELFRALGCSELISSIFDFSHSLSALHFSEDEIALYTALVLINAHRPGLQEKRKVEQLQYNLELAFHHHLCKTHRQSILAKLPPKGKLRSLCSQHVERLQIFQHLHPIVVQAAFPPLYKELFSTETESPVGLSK
Experimental: Ursolic acid was used as a positive control.
Cell-based luciferase reporter assays for RORα and RORγ (Indigo Biosciences) were performed according to the manufacturer’s protocol.

[1] = Liver microsomal stability, human; format: in vitro ADME; settings: human, liver microsomes, pH 7.4; 1 µM compound, 0.5 mg/ml microsome, NADPH, 37 °C; read-out: Liver microsomal stability, t1/2, Human
Experimental: The compound was mixed with 0.5 mg/ml human liver microsome (Thermal Fisher) at a final concentration of 1 µM in 100 mM potassium phosphate buffer, pH 7.4. The reactions were initiated by the addition of 1 mM NADPH. Samples in duplicate were incubated at 37 °C with mixing. 100 µL aliquots were transferred after 0, 5, 10, 30, 45, 60 minutes to a new tube with 300 µL acetonitrile, incubated on ice for 30 minutes, centrifuged at 1800×g at 4 °C for 10 minutes. The supernatants were transferred to glass vials subjected to LC/MS analysis. Peak areas were measured to calculate half-life according to the formula t1/2 = − 0.693/slope of linear regression analysis of ln [concentration] versus incubation time. Similar methods were applied to access mouse and rat liver microsomal stability of the compounds.

## CCS(=O)(=O)c1ccc([C@H](CCO)c2nc3c(Cl)c(N4CCC(F)(F)CC4)c(Cl)cc3[nH]2)cc1 [SHR168442, (S)-3-(4,6-dichloro-5-(4,4-difluoropiperidin-1-yl)-1H-benzo[d]imidazol-2-yl)-3-(4-(ethylsulfonyl)phenyl)propan-1-ol]
RORγ
  IC50: 0.015 ± 0.009 µM
[1]
  half-life at 1 µM: 2.3 min
